The source of these data is PMC10788941, “Solubilizer Tag Effect on PD-L1/Inhibitor Binding Properties for m-Terphenyl Derivatives” (ACS Medicinal Chemistry Letters, 2023).

SMILES strings stand for the structures.

One data set deals with T1, PD-1/PD-L1 complex (hPD-1, hPD-L1) (Homo sapiens, UniProt Q9NZQ7).
T1 construct: purchased Cis-Bio
T1 sequence (Q9NZQ7 19-238 limits assumed, one chain of several): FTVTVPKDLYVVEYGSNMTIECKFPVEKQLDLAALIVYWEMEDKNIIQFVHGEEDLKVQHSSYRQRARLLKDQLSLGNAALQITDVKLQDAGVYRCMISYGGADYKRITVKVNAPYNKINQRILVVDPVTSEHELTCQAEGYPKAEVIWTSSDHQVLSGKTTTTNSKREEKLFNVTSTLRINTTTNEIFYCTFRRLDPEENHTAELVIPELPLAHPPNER
The data set is described as follows: HTRF assay of PD-1/PD-L1 complex disruption (Cis-Bio kit). It counts as binding. To be noted: disruption of PD-1/PD-L1 complex, n = 2. An excerpt:
4.3. Homogenous Time-Resolved Fluorescence
HTRF (Homogeneous Time Resolved Fluorescence) is a widely used technology for homogenous analyte measurement, particularly in high-throughput screening for drug target studies.
This technology combines fluorescence resonance energy transfer (FRET) with tim e-resolved measurement. In TR-FRET assays, a signal is generated when a donor and an acceptor molecule are in proximity (so-called FRET distance), transfer energy through FRET. Both fluorophores are attached to the monoclonal antibodies that are then specifically detecting particular tags on target proteins.
The commercially available Cis-Bio assay kit was used to perform the HTRF assay. Following the standard protocol, the measurement was carried out at a 20 µL final volume with a 5 nM concentration of hPD-1 and 50 nM concentration of hPD-L1 in the final formulation. Separate dilution […]
compounds. Analyte and detection reagents (anti-analyte conjugated donor and acceptor conjugated […]
plate was left for 1 h of incubation and it was read on an HTRF certified microplate reader Tecan Spark
20M. Output data were subjected to background subtraction on negative control (no PD-1), and normalization in correlation to the positive control (no inhibitor) and averaged. Resulting data points were then fitted with Hill’s equation to generate IC50 using Mathematica 12. […]
`COc1cc(-c2cccc(-c3ccc4c(c3)OCCO4)c2Cl)ccc1CN1CCCC1C(=O)O` (centres unmarked) [1a] returned an IC50 of under 0.5 nM.
Still for that read-out and setting: the figure for `COc1cc(-c2cccc(-c3ccc4c(c3)OCCO4)c2Cl)ccc1CN1CCCC1C(=O)NO` (centres unmarked) [1b] is over 1000 nM.
`COc1cc(-c2cccc(-c3ccc4c(c3)OCCO4)c2Cl)ccc1CN1CCCC1C(=O)NN` (centres unmarked) [1c] showed a half-inhibitory concentration (IC50) of 76.2 ± 2.35 nM.
On to `COc1cc(-c2cccc(-c3ccc4c(c3)OCCO4)c2Cl)ccc1CN1CCCC1C(=O)NN(C)C` (centres unmarked) [1d], for which the IC50 is under 0.5 nM.
As to `COc1cc(-c2cccc(-c3ccc4c(c3)OCCO4)c2Cl)ccc1CN1CCCC1C(=O)NCCN` (centres unmarked) [1e], the concentration for half-maximal inhibition (IC50) is under 0.5 nM.
For `COc1cc(-c2cccc(-c3ccc4c(c3)OCCO4)c2Cl)ccc1CN1CCCC1C(=O)NCCO` (centres unmarked) [1f], the IC50 was under 0.5 nM.
As to `COc1cc(-c2cccc(-c3ccc4c(c3)OCCO4)c2Cl)ccc1CN1CCCC1C(=O)NC(CO)CO` (centres unmarked) [1g], the IC50 is under 0.5 nM.
Still for that read-out and setting: the figure for `COc1cc(-c2cccc(-c3ccc4c(c3)OCCO4)c2Cl)ccc1CN1CCCC1C(=O)NC(CO)(CO)CO` (centres unmarked) [1h] is under 0.5 nM.
Still for that read-out and setting: the value for `COc1cc(-c2cccc(-c3ccc4c(c3)OCCO4)c2Cl)ccc1CN1CCC(C(=O)O)C1` (centres unmarked) [2a] was 1.1 ± 0.07 nM; that for `COc1cc(-c2cccc(-c3ccc4c(c3)OCCO4)c2Cl)ccc1CN1CCC(C(=O)NO)C1` (centres unmarked) [2b] was 0.94 ± 0.01 nM.
In turn, `COc1cc(-c2cccc(-c3ccc4c(c3)OCCO4)c2Cl)ccc1CN1CCC(C(=O)NN)C1` (centres unmarked) [2c] registered a half-inhibitory concentration (IC50) of under 0.5 nM.
The same measure, in the same setting: the figure for `COc1cc(-c2cccc(-c3ccc4c(c3)OCCO4)c2Cl)ccc1CN1CCC(C(=O)NN(C)C)C1` (centres unmarked) [2d] is 12 ± 2.01 nM.
The molecule `COc1cc(-c2cccc(-c3ccc4c(c3)OCCO4)c2Cl)ccc1CN1CCC(C(=O)NCCN)C1` (centres unmarked) [2e] gave an IC50 of 4.94 ± 0.37 nM.
Same read-out and setting: the value for `COc1cc(-c2cccc(-c3ccc4c(c3)OCCO4)c2Cl)ccc1CN1CCC(C(=O)NCCO)C1` (centres unmarked) [2f] was under 0.5 nM.
As to `COc1cc(-c2cccc(-c3ccc4c(c3)OCCO4)c2Cl)ccc1CN1CCC(C(=O)NC(CO)CO)C1` (centres unmarked) [2g], the IC50 was under 0.5 nM.
For `COc1cc(-c2cccc(-c3ccc4c(c3)OCCO4)c2Cl)ccc1CN1CCC(C(=O)NC(CO)(CO)CO)C1` (centres unmarked) [2h], the IC50 is under 0.5 nM.
Same read-out and setting: the value for `COc1cc(-c2cccc(-c3ccc4c(c3)OCCO4)c2Cl)ccc1CN1CCCCC1C(=O)O` (centres unmarked) [3a] was 0.58 ± 0.05 nM; that for `COc1cc(-c2cccc(-c3ccc4c(c3)OCCO4)c2Cl)ccc1CN1CCCCC1C(=O)NN` (centres unmarked) [3c] was 16.7 ± 1.63 nM.
Still for that read-out and setting: the figure for `COc1cc(-c2cccc(-c3ccc4c(c3)OCCO4)c2Cl)ccc1CN1CCCCC1C(=O)NN(C)C` (centres unmarked) [3d] is 56 ± 1.33 nM; for `COc1cc(-c2cccc(-c3ccc4c(c3)OCCO4)c2Cl)ccc1CN1CCCCC1C(=O)NCCO` (centres unmarked) [3f] it is 0.9 ± 0.05 nM; for `COc1cc(-c2cccc(-c3ccc4c(c3)OCCO4)c2Cl)ccc1CN1CCCCC1C(=O)NC(CO)CO` (centres unmarked) [3g] it is 63.6 ± 1.86 nM.
On the same count and under the same terms, the figure for `COc1cc(-c2cccc(-c3ccc4c(c3)OCCO4)c2Cl)ccc1CN1CCCCC1C(=O)NC(CO)(CO)CO` (centres unmarked) [3h] is 477 ± 83.5 nM; for `COc1cc(-c2cccc(-c3ccc4c(c3)OCCO4)c2Cl)ccc1CN1CCCC(C(=O)O)C1` (centres unmarked) [4a] it is under 0.5 nM.
Molecule `COc1cc(-c2cccc(-c3ccc4c(c3)OCCO4)c2Cl)ccc1CN1CCCC(C(=O)NO)C1` (centres unmarked) [4b] came in with an IC50 of 1.09 ± 0.07 nM.
Consider `COc1cc(-c2cccc(-c3ccc4c(c3)OCCO4)c2Cl)ccc1CN1CCCC(C(=O)NN)C1` (centres unmarked) [4c], for which half-maximal inhibition (IC50) was put at 79.9 ± 5.7 nM.
The same measure, in the same setting: the value for `COc1cc(-c2cccc(-c3ccc4c(c3)OCCO4)c2Cl)ccc1CN1CCCC(C(=O)NN(C)C)C1` (centres unmarked) [4d] was 37 ± 1.75 nM.
Still for that read-out and setting: the value for `COc1cc(-c2cccc(-c3ccc4c(c3)OCCO4)c2Cl)ccc1CN1CCCC(C(=O)NCCO)C1` (centres unmarked) [4f] was under 0.5 nM; that for `COc1cc(-c2cccc(-c3ccc4c(c3)OCCO4)c2Cl)ccc1CN1CCCC(C(=O)NC(CO)(CO)CO)C1` (centres unmarked) [4h] was 19.3 ± 1.22 nM.
The same measure, in the same setting: the figure for `COc1cc(-c2cccc(-c3ccc4c(c3)OCCO4)c2Cl)ccc1CN1CCC(C(=O)O)CC1` [5a] is under 0.5 nM; for `COc1cc(-c2cccc(-c3ccc4c(c3)OCCO4)c2Cl)ccc1CN1CCC(C(=O)NO)CC1` [5b] it is 766 ± 71.5 nM.
As to `COc1cc(-c2cccc(-c3ccc4c(c3)OCCO4)c2Cl)ccc1CN1CCC(C(=O)NN)CC1` [5c], the half-maximal inhibitory concentration (IC50) was 96.5 ± 2.71 nM.
`COc1cc(-c2cccc(-c3ccc4c(c3)OCCO4)c2Cl)ccc1CN1CCC(C(=O)NN(C)C)CC1` [5d] registered an IC50 of under 0.5 nM.
As to `COc1cc(-c2cccc(-c3ccc4c(c3)OCCO4)c2Cl)ccc1CN1CCC(C(=O)NCCN)CC1` [5e], the half-inhibitory concentration (IC50) is under 0.5 nM.
Regarding `COc1cc(-c2cccc(-c3ccc4c(c3)OCCO4)c2Cl)ccc1CN1CCC(C(=O)NCCO)CC1` [5f], inhibition was half-maximal at 0.55 ± 0.03 nM (IC50).
The molecule `COc1cc(-c2cccc(-c3ccc4c(c3)OCCO4)c2Cl)ccc1CN1CCC(C(=O)NC(CO)CO)CC1` [5g] gave a half-inhibitory concentration (IC50) of under 0.5 nM.
On the same count and under the same terms, the value for `COc1cc(-c2cccc(-c3ccc4c(c3)OCCO4)c2Cl)ccc1CN1CCC(C(=O)NC(CO)(CO)CO)CC1` [5h] was under 0.5 nM.

For a further data set, the target named is T2, PD-1/PD-L1 immune checkpoint (Homo sapiens, UniProt Q9NZQ7).
T2 construct: host or cells: CHO/TCRAct/PD-L1 cells (PD-L1); Jurkat-ECs (PD-1)
T2 sequence (Q9NZQ7 19-290): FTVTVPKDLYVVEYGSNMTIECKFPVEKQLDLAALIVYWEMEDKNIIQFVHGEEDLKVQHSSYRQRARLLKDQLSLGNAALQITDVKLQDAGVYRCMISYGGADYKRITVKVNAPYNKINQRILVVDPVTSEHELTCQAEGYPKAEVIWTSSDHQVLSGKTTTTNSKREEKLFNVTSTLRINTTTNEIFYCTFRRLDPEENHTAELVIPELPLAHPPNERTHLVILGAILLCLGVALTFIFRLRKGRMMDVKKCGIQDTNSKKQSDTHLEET
The data set can be described thus: cell-based PD-1/PD-L1 immune checkpoint blockade (ICB) assay, Jurkat-ECs with CHO/TCRAct/PD-L1 cells, luciferase readout. To be noted: compound 1 μM, relative to DMSO-treated cells. The method, then:
4.4. PD-1/PD-L1 immune checkpoint blockade (ICB) assay
For the in vitro analysis of the bioactivity of the molecules an Immune Checkpoint Blockade assay was performed 4 CHO/TCRAct/PD -L1 cells (Promega), overexpressing an artificial TCR - activator construct and PD -L1, were seeded on 96 -well white plates at the density of 10 000 cells/well.
The next day, the cells were overlaid with the effector Jurkat T cells (Jurkat -ECs, Promega, 20 000 cells/well), overexpressing PD -1 and containing construct assuring an NFAT -induced expression of luciferase, either in the presence of the indicated concentrations of the compounds with DMSO -only as a control (the concentration of DMSO was kept constant at 0.1%) or durvalumab (Selleckchem), as a positive control, with untreated cells as controls. Activation of the Jurkat -ECs, reflected by luciferase activity, was monitored by luminescence measurements after 6 h of incubation (37°C, 5%CO 2), and […]
20 min of additional incubation with the Bio-GloTM Assay reagent (Promega) at room temperature.
The luminescence was read on the Spark microplate reader (Tecan). The data is presented as fold induction of the luminescence signal relative to either untreated (for durvalumab) or DMSO-treated (for compounds) cells. Data points represent mean ± SD values from duplicates. […]
HCl, 0.25 mM oxidized glutathione, and 0.25 mM reduced glutathione. After the refolding step, the protein was dialyzed 3 times against buffer containing 10 mM Tris-HCl pH 8.0 and 20 mM NaCl. The final step of purification consisted of size exclusion chromatography using a Superdex 75 column and 10 mM Tris- HCl, 20 mM NaCl based buffer for crystallization or PBS buffer for NMR based experiments. The correctly folded state and purity of the PD-L1 protein were checked by NMR and […]
The freshly purified protein was concentrated to 5 mg/mL and then mixed in a 1:3 molar ratio with an excess of the 2f inhibitor, finally the solution was centrifuged for 1 minute at max speed. The clarified solution was then used for screening using multiple available commercial screens. The diffraction quality crystals were obtained from a sitting drop set up at room temperature with a buffer containing 27 % w/v PEG 3350, 0.1 M Bis-Tris propane, pH 7.0 and 0.2 M Lithium sulfate. Crystals were cryo-protected using glycerol and flash frozen with liquid nitrogen.
The X-ray diffraction data were collected at the BL13 - XALOC beamline at ALBA (Barcelona, Spain).6The data were indexed, integrated, and scaled using XDS, SCALE, and Aimless.
7–9 The initial phase estimates was obtained by molecular replacement calculated in Phaser using PDB:5C3T as a model.10 The refinement was performed using CCP4cloud11 and verified using Coot .12–14 The structure was deposited in the Protein Data Bank with accession number 8R6Q. The protein-ligand interactions were assessed using PLIP server15 and visualized using PyMol (The PyMOL Molecular Graphics System, Version 2.0 Schrödinger, LLC).
4.6. Crystal structure determination for compound 2a
X-ray diffraction data for single crystals of compound 2a was collected using XtalLAB Synergy-S four-circle diffractometer with a mirror monochromator and a microfocus CuKα radiation source (λ = 1.5418 Å). The CryoStream cryostat system was used to allow low-temperature
Take `COc1cc(-c2cccc(-c3ccc4c(c3)OCCO4)c2Cl)ccc1CN1CCC(C(=O)NO)C1` (centres unmarked) [2b]: the “activation of Jurkat-ECs (fold induction)” value is on record as “bioactivity was observed”.
The same measure, in the same setting: the value for `COc1cc(-c2cccc(-c3ccc4c(c3)OCCO4)c2Cl)ccc1CN1CCC(C(=O)NCCN)C1` (centres unmarked) [2e] was “bioactivity was observed”.
The same measure, in the same setting: the entry for `COc1cc(-c2cccc(-c3ccc4c(c3)OCCO4)c2Cl)ccc1CN1CCC(C(=O)NC(CO)CO)C1` (centres unmarked) [2g] is “bioactivity was observed”; for `COc1cc(-c2cccc(-c3ccc4c(c3)OCCO4)c2Cl)ccc1CN1CCC(C(=O)NC(CO)(CO)CO)C1` (centres unmarked) [2h] it is “bioactivity was observed”.

The data set is the same for the next values; noted with them: compound 6.4 μM, relative to DMSO-treated cells.
`COc1cc(-c2cccc(-c3ccc4c(c3)OCCO4)c2Cl)ccc1CN1CCC(C(=O)NN(C)C)C1` (centres unmarked) [2d]: the “activation of Jurkat-ECs (fold induction)” value is listed as “activity was retained”.
On the same count and under the same terms, the value for `COc1cc(-c2cccc(-c3ccc4c(c3)OCCO4)c2Cl)ccc1CN1CCC(C(=O)NC(CO)CO)C1` (centres unmarked) [2g] was “activity was retained”; that for `COc1cc(-c2cccc(-c3ccc4c(c3)OCCO4)c2Cl)ccc1CN1CCC(C(=O)NC(CO)(CO)CO)C1` (centres unmarked) [2h] was “T cell activation dropped down”.

The same data set, now with this note: compound 6.4 μM, relative to DMSO-treated cells; 6.4 µM.
In the case of `COc1cc(-c2cccc(-c3ccc4c(c3)OCCO4)c2Cl)ccc1CN1CCC(C(=O)NCCN)C1` (centres unmarked) [2e], the “activation of Jurkat-ECs (fold induction)” value was “T cell activation dropped down and tox”.

The data set is the same for the next values; noted with them: different concentrations, Figure S1.
Take `COc1cc(-c2cccc(-c3ccc4c(c3)OCCO4)c2Cl)ccc1CN1CCC(C(=O)NN(C)C)C1` (centres unmarked) [2d]: the “dose-dependent activation of Jurkat-ECs and toxicity” value (“dose-dependent activation” below) was “highest dose-dependent activity and lowest toxicity”.
With `COc1cc(-c2cccc(-c3ccc4c(c3)OCCO4)c2Cl)ccc1CN1CCC(C(=O)NCCO)C1` (centres unmarked) [2f], the “dose-dependent activation” value is “highest dose-dependent activity and lowest toxicity”.
Take `COc1cc(-c2cccc(-c3ccc4c(c3)OCCO4)c2Cl)ccc1CN1CCC(C(=O)NC(CO)CO)C1` (centres unmarked) [2g]: the “dose-dependent activation” value is “highest dose-dependent activity and lowest toxicity”.
